Data from patent publication US20220242870A1, “HETEROCYCLE-FUSED PYRIMIDINE DERIVATIVE AND USE THEREOF” (VORONOI Inc., priority 2019, published 2022).

Biological target: T1, human GST-HPK1 (1-346) (Homo sapiens, UniProt Q92918)
T1 construct: purified human GST-HPK1 (1-346, Signalchem) enzyme; purchased Signalchem
T1 sequence (Q92918 1-346): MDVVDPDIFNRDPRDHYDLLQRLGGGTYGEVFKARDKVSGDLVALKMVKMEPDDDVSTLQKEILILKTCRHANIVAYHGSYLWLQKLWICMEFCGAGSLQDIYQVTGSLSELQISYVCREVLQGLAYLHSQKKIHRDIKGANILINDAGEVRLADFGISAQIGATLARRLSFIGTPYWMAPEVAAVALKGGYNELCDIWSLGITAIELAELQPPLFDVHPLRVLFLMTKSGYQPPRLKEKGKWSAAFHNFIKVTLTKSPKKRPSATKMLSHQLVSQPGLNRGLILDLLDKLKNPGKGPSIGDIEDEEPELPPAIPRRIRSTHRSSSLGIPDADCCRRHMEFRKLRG
Assay: HPK1 enzyme inhibitory ability (ADP-Glo kinase assay)
Assay type: biochemical
Conditions: human GST-HPK1 3 ng, ATP 3 uM, 25° C. 2 hours
Procedure: In order to evaluate the inhibitory activities of the example compounds according to the present invention on the HPK1 (hematopoietic progenitor kinase 1) enzyme, the following experiment was performed. The example compounds were reacted with the purified human GST-HPK1 (1-346, Signalchem) enzyme to evaluate the enzyme inhibitory ability by the following method. As the reaction buffer, a composition of 40 mM Tris-HCl pH 7.4, 20 mM MgCl2, 0.5 mg/mL BSA and 50 uM DTT was used, and reactions of all test matters were performed on the reaction buffer. Upon the test, the human GST-HPK1 (3 ng) enzyme, the purified ATP (3 uM) and a specific substrate solution were reacted at 25° C. for 2 hours, and then the enzyme activity was identified using an in vitro ADP-Glo™ kinase assay (promega). The enzyme activity reaction solution, the ADP-Glo reaction solution and the enzyme ability detection solution were reacted in a ratio of 2:2:1 to measure luminescence. The enzyme activity inhibition degree according to the treatment concentrations of the respective compounds was calculated based on the fluorescence of the enzyme activity of the solvent control group that was not treated with the compound, where the concentration of each compound that inhibited enzyme activity inhibition by 50% was determined as an IC50 (nM) value.

Compound | IC50
c1ccc([C@@H]2CCON2c2nc(Nc3ccc(N4CCC(N5CCN(C6CC6)CC5)CC4)cc3)nc3[nH]ccc23)cc1 [Example 86, (S)-N-(4-(4-(4-cyclopropylpiperazin-1-yl)piperidin-1-yl)phenyl)-4-(3-phenylisoxazolidin-2-yl)-7H-pyrrolo[2,3-d]pyrimidin-2-amine] | > 500 nM
COc1cc(N2CCC(N3CCN(C)CC3)CC2)ccc1Nc1nc(N2OCC[C@H]2c2ccccc2)c2cc[nH]c2n1 [Example 88, (S)-N-(2-methoxy-4-(4-(4-methylpiperazin-1-yl)piperidin-1-yl)phenyl)-4-(3-phenylisoxazolidin-2-yl)-7H-pyrrolo[2,3-d]pyrimidin-2-amine] | > 500 nM
COc1cc(C(=O)N2CCC(N3CCN(C)CC3)CC2)ccc1Nc1nc(N2OCC[C@H]2c2ccccc2)c2cc[nH]c2n1 [Example 98, (S)-(3-methoxy-4-((4-(3-phenylisoxazolidin-2-yl)-7H-pyrrolo[2,3-d]pyrimidin-2-yl)amino)phenyl)(4-(4-methylpiperazin-1-yl)piperidin-1-yl)methanone] | > 500 nM
Cc1cc(Nc2nc(N3OCC[C@H]3c3ccccc3)c3cc[nH]c3n2)cc(C)c1OCCCN1CCN(C)CC1 [Example 102, (S)-N-(3,5-dimethyl-4-(3-(4-methylpiperazin-1-yl)propoxy)phenyl)-4-(3-phenylisoxazolidin-2-yl)-7H-pyrrolo[2,3-d]pyrimidin-2-amine] | ≥ 250 nM
COc1cc2c(cc1Nc1nc(N3OCC[C@H]3c3ccccc3)c3cc[nH]c3n1)C(=O)NCC2 [Example 108, (S)-6-methoxy-7-((4-(3-phenylisoxazolidin-2-yl)-7H-pyrrolo[2,3-d]pyrimidin-2-yl)amino)-3,4-dihydroisoquinolin-1(2H)-one] | ≥ 250 nM
CC(=O)N1CCc2cc(Nc3nc(N4OCC[C@H]4c4ccccc4)c4cc[nH]c4n3)ccc2C1 [Example 112, (S)-1-(6-((4-(3-phenylisoxazolidin-2-yl)-7H-pyrrolo[2,3-d]pyrimidin-2-yl)amino)-3,4-dihydroisoquinolin-2(1H)-yl)ethan-1-one] | > 500 nM
COc1ccc2c(c1Nc1nc(N3OCC[C@H]3c3ccccc3)c3cc[nH]c3n1)CCNC2 [Example 113, (S)-6-methoxy-N-(4-(3-phenylisoxazolidin-2-yl)-7H-pyrrolo[2,3-d]pyrimidin-2-yl)-1,2,3,4-tetrahydroisoquinolin-5-amine] | > 500 nM
COc1ccc2c(c1Nc1nc(N3OCC[C@H]3c3ccccc3)c3cc[nH]c3n1)CCN(C)C2 [Example 114, (S)-6-methoxy-2-methyl-N-(4-(3-phenylisoxazolidin-2-yl)-7H-pyrrolo[2,3-d]pyrimidin-2-yl)-1,2,3,4-tetrahydroisoquinolin-5-amine] | > 500 nM
FC(F)(F)c1c[nH]c2nc(Nc3ccc4c(c3)CCNC4)nc(N3OCC[C@H]3c3ccccc3)c12 [Example 124, (S)-N-(4-(3-phenylisoxazolidin-2-yl)-5-(trifluoromethyl)-7H-pyrrolo[2,3-d]pyrimidin-2-yl)-1,2,3,4-tetrahydroisoquinolin-6-amine] | > 500 nM

Further lines, results first:

IC50 | Compound
> 500 nM | COc1cc(N2CCN(C)CC2)ccc1Nc1nc(N2OCC[C@H]2c2ccccc2)c2cc[nH]c2n1 [Example 80, (S)-N-(2-methoxy-4-(4-methylpiperazin-1-yl)phenyl)-4-(3-phenylisoxazolidin-2-yl)-7H-pyrrolo[2,3-d]pyrimidin-2-amine]
> 500 nM | COc1cc(C(=O)N2CCC(N3CCOCC3)CC2)ccc1Nc1nc(N2OCC[C@H]2c2ccccc2)c2cc[nH]c2n1 [Example 97, (S)-(3-methoxy-4-((4-(3-phenylisoxazolidin-2-yl)-7H-pyrrolo[2,3-d]pyrimidin-2-yl)amino)phenyl)(4-morpholinopiperidin-1-yl)methanone]
> 500 nM | CN(C)C(=O)Cn1cc(Nc2nc(N3OCC[C@H]3c3ccccc3)c3cc[nH]c3n2)cn1 [Example 103, S-N,N-dimethyl-2-(4-((4-(3-phenylisoxazolidin-2-yl)-7H-pyrrolo[2,3-d]pyrimidin-2-yl)amino)-1H-pyrazol-1-yl)acetamide]
> 500 nM | COc1cc2c(cc1Nc1nc(N3OCC[C@H]3c3ccccc3)c3cc[nH]c3n1)CN(C)CC2 [Example 106, (S)-6-methoxy-2-methyl-N-(4-(3-phenylisoxazolidin-2-yl)-7H-pyrrolo[2,3-d]pyrimidin-2-yl)-1,2,3,4-tetrahydroisoquinolin-7-amine]
> 500 nM | COc1cc2c(cc1Nc1nc(N3OCC[C@H]3c3ccccc3)c3cc[nH]c3n1)CNCC2 [Example 107, (S)-6-methoxy-N-(4-(3-phenylisoxazolidin-2-yl)-7H-pyrrolo[2,3-d]pyrimidin-2-yl)-1,2,3,4-tetrahydroisoquinolin-7-amine]
> 500 nM | COc1cc2c(cc1Nc1nc(N3OCC[C@H]3c3ccccc3)c3c(C#N)c[nH]c3n1)CN(C1CC1)CC2 [Example 122, (S)-2-((2-cyclopropyl-6-methoxy-1,2,3,4-tetrahydroisoquinolin-7-yl)amino)-4-(3-phenylisoxazolidin-2-yl)-7H-pyrrolo[2,3-d]pyrimidine-5-carbonitrile]
